Assay type in all cases: in vivo
Holding throughout (conditions): 1000 g/h, after 13 days

Experiment [1] has as its system Amaranthus retoflexus (AMARE). Description: Further testing, pre-emergence application. As for the experimental part:
(§1) Seeds of a variety of test species are sown in standard soil in pots (Lolium perenne (LOLPE), Solanum nigrum (SOLNI), Amaranthus retoflexus (AMARE), Setaria faberi (SETFA), Echinochloa crus-galli (ECHCG), Ipomoea hederacea (IPOHE)). After cultivation for one day (pre-emergence) or after 8 days cultivation (post-emergence) under controlled conditions in a glasshouse (at 24/16° C., day/night; 14 hours light; 65% humidity), the plants are sprayed with an aqueous spray solution derived from the formulation of the technical active ingredient in acetone/water (50:50) solution containing 0.5% Tween 20 (polyoxyethelyene sorbitan monolaurate, CAS RN 9005-64-5). Compounds are applied at 1000 g/h unless otherwise stated. The test plants are then grown in a glasshouse under controlled conditions in a glasshouse (at 24/16° C., day/night; 14 hours light; 65% humidity) and watered twice daily. After 13 days for pre and post-emergence, the test is evaluated for the percentage damage caused to the plant. The biological activities are shown in the following table on a five point scale (5=80-100%; 4=60-79%; 3=40-59%; 2=20-39%; 1=0-19%).

Experiment [2] relates to Lolium perenne (LOLPE). Description: Further testing, pre-emergence application. As for the experimental part: as §1
Experiment [3] concerns Setaria faberi (SETFA). Description: Further testing, pre-emergence application. As for the experimental part: as §1
Experiment [4] deals with Echinochloa crus-galli (ECHCG). Description: Further testing, pre-emergence application. As for the experimental part:
as §1

Experiment [5] deals with Solanum nigrum (SOLNI). Description: Further testing, pre-emergence application. As for the experimental part:
as §1

The subject of experiment [6] is Ipomoea hederacea (IPOHE). Description: Further testing, pre-emergence application. As for the experimental part: as §1
Experiment [7] relates to Amaranthus retoflexus (AMARE). Description: Further testing, post-emergence application. As for the experimental part: as §1
For experiment [8], the system named is Lolium perenne (LOLPE). Description: Further testing, post-emergence application. As for the experimental part:
as §1

The test system of experiment [9] is Setaria faberi (SETFA). Description: Further testing, post-emergence application. As for the experimental part:
as §1

Experiment [10] has as its system Echinochloa crus-galli (ECHCG). Description: Further testing, post-emergence application. As for the experimental part: as §1
Experiment [11] deals with Solanum nigrum (SOLNI). Description: Further testing, post-emergence application. As for the experimental part: as §1
In experiment [12] the test system is Ipomoea hederacea (IPOHE). Description: Further testing, post-emergence application. As for the experimental part: as §1

Regarding `CCCn1nnnc1NC(=O)c1nn(C)c(=O)c(C2CCCC2)c1Cl` [Compound 1.006], the “percentage damage caused to the plant, five point scale” value (from here on “percentage damage caused to the plant”) in [1] is reported as 5 (5=80-100%); in experiment [2] it was 5 (5=80-100%); in [3] it was 5 (5=80-100%); in experiment [4], 5 (5=80-100%); in experiment [5], 5 (5=80-100%); in [6] it was 4 (4=60-79%). In addition, the “percentage damage caused to the plant” value in [7], in experiment [8], in [9], in experiment [10], in [11] and in experiment [12] was 5 (5=80-100%) throughout.
Take `Cn1nnnc1NC(=O)c1nn(C)c(=O)c(C2CCCC2)c1Cl` [Compound 1.005]: the “percentage damage caused to the plant” value in experiment [1], in experiment [2], in [3], in [4], in experiment [5] and in experiment [6] was 5 (5=80-100%) throughout. Further, the “percentage damage caused to the plant” value in experiment [7], in experiment [8], in [9], in experiment [10], in [11] and in [12] was 5 (5=80-100%) in each case.
Consider `Cn1nnnc1NC(=O)c1nn(C)c(=O)c(C2CCCCC2)c1Cl` [Compound 1.030], for which the “percentage damage caused to the plant” value is recorded as 5 (5=80-100%) in experiment [1]; 5 (5=80-100%) in experiment [2]; 5 (5=80-100%) in experiment [3]; 5 (5=80-100%) in experiment [4]; 5 (5=80-100%) in experiment [5]; 2 (2=20-39%) in experiment [6]. In addition, the “percentage damage caused to the plant” value is given as 5 (5=80-100%) in [7]; 5 (5=80-100%) in experiment [8]; 5 (5=80-100%) in experiment [9]; 5 (5=80-100%) in experiment [10]; 5 (5=80-100%) in [11]; 4 (4=60-79%) in experiment [12].
For `CC1CCC(c2c(Cl)c(C(=O)Nc3nnnn3C)nn(C)c2=O)CC1` (stereo not drawn) [Compound 1.022], the “percentage damage caused to the plant” value in [1], in [2], in experiment [3], in experiment [4], in experiment [5] and in experiment [6] was 5 (5=80-100%) each time. Besides, the “percentage damage caused to the plant” value in experiment [7], in [8], in experiment [9], in experiment [10], in [11] and in experiment [12] was 5 (5=80-100%) in each case.
In the case of `Cn1nnnc1NC(=O)c1nn(C)c(=O)c(C2CCC(C)(C)CC2)c1Cl` [Compound 1.017], the “percentage damage caused to the plant” value is recorded as 5 (5=80-100%) in [1]; 5 (5=80-100%) in experiment [2]; 5 (5=80-100%) in experiment [3]; 5 (5=80-100%) in experiment [4]; 5 (5=80-100%) in [5]; 4 (4=60-79%) in experiment [6]. For the same compound, the “percentage damage caused to the plant” value in experiment [7], in experiment [8], in [9], in [10], in experiment [11] and in [12] was 5 (5=80-100%) each time.
On to `CCn1nnnc1NC(=O)c1nn(C)c(=O)c(C2CCCCC2)c1Cl` [Compound 1.002], for which the “percentage damage caused to the plant” value in experiment [1], in experiment [2], in experiment [3], in experiment [4], in experiment [5] and in [6] was 5 (5=80-100%) each time. Moreover, the “percentage damage caused to the plant” value in experiment [7], in experiment [8], in [9], in experiment [10], in experiment [11] and in experiment [12] was 5 (5=80-100%) each time.
Turning to `Cn1nnnc1NC(=O)c1nn(C)c(=O)c(C2CCCCC2)c1Cl` [Compound 1.031], the “percentage damage caused to the plant” value is reported as 5 (5=80-100%) in experiment [1]; 3 (3=40-59%) in [2]; 4 (4=60-79%) in experiment [3]; 5 (5=80-100%) in experiment [4]; 5 (5=80-100%) in experiment [5]; 4 (4=60-79%) in experiment [6]. The “percentage damage caused to the plant” value is on record as 5 (5=80-100%) in experiment [7]; 4 (4=60-79%) in [8]; 5 (5=80-100%) in [9]; 4 (4=60-79%) in experiment [10]; 5 (5=80-100%) in experiment [11]; 4 (4=60-79%) in [12].
For `CCCn1nnnc1NC(=O)c1nn(C)c(=O)c(C2CCCCC2)c1Cl` [Compound 1.003], the “percentage damage caused to the plant” value in experiment [1], in experiment [2], in experiment [3], in experiment [4], in experiment [5] and in experiment [6] was 5 (5=80-100%) in each case. The “percentage damage caused to the plant” value in experiment [7] is listed as 5 (5=80-100%); in experiment [8] it was 4 (4=60-79%); in experiment [9] it was 5 (5=80-100%); in experiment [10], 5 (5=80-100%); in [11] it was 5 (5=80-100%); in experiment [12], 5 (5=80-100%).

The values are drawn from patent US10512268B2, “Herbicidal compounds” (Syngenta Participations AG, priority 2015, dated 2019).
